# Patent publication US20220089575A1, “FARNESOID X RECEPTOR AGONISTS AND USES THEREOF” (Metacrine, Inc., priority 2017, published 2022)
# Target: T1, hFXR (Homo sapiens, UniProt Q96RI1)
# T1 construct: expressed in transfected cells; host or cells: CV-1 cells
# T1 sequence (Q96RI1 1-486): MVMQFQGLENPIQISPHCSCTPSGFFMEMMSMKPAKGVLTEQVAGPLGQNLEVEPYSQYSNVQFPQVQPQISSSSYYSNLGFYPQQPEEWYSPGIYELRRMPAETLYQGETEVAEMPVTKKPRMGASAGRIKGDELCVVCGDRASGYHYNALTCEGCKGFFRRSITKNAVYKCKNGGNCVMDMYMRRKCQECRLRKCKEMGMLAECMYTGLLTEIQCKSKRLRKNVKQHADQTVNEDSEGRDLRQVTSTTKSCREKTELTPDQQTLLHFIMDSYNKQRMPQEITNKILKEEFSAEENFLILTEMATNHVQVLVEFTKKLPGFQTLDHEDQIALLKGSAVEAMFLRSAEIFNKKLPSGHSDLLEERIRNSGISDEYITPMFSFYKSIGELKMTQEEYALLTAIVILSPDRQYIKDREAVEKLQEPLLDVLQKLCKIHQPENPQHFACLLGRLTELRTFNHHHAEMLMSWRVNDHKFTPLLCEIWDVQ
# T1 sequence (P19793 1-462 partner): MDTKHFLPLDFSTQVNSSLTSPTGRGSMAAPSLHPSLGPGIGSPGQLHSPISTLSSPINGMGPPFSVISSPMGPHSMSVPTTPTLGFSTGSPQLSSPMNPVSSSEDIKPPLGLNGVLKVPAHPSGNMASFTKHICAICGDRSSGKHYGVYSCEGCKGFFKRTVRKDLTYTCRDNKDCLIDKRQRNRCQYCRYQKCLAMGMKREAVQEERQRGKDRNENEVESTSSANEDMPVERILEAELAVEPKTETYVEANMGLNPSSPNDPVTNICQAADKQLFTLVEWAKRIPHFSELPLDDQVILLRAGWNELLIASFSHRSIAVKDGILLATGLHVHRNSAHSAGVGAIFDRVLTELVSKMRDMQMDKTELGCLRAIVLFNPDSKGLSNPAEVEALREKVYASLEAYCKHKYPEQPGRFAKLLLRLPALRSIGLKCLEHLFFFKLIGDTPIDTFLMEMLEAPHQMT
# Assay: In Vitro FXR Assay (TK): TK-ECRE-luc reporter in transfected CV-1 cells
# Type: cell-based
# Conditions: 18 hrs, luminescence, maximum efficacy of <25% of the Fexarmine control classified as '+'
# Procedure, shortened: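 Reporter transactivation by hFXR was measured in CV-1 cells carrying hRXR and a TK-ECRE-luc construct, with compound treatment for 18 h before lysis and luminescence detection.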
row,Structure (SMILES),EC50 [µM]
1,"COc1ncc(-c2cccc(N(C[C@H]3CC[C@H](c4ccc(OC)c(C)c4)CC3)C(=O)[C@H]3CC[C@H](NC(=O)OC(C)(C)C)CC3)c2)s1 [Compound 25.01, tert-Butyl (trans-4-(((trans-4-(4-methoxy-3-methylphenyl)cyclohexyl)methyl)(3-(2-methoxythiazol-5-yl)phenyl)carbamoyl)cyclohexyl)carbamate]",0.25 to 1
2,"COc1ccc([C@H]2CC[C@H](CN(c3cccc(-c4cnc(C5CC5)s4)c3)C(=O)[C@H]3CC[C@H](C(=O)OC)CC3)CC2)cc1C [Compound 18.06, trans-Methyl 4-((3-(2-cyclopropylthiazol-5-yl)phenyl)((trans-4-(4-methoxy-3-methylphenyl)cyclohexyl)methyl)carbamoyl) cyclohexanecarboxylate]",≤ 0.25
3,"CNC(=O)O[C@H]1CC[C@H](C(=O)N(C[C@H]2CC[C@H](c3ccc(OC)c(C)n3)CC2)c2cccc(-c3cnc(C(C)C)s3)c2)CC1 [Compound 5.08, trans-4-((3-(2-Isopropylthiazol-5-yl)phenyl)((trans-4-(5-methoxy-6-methylpyridin-2-yl)cyclohexyl)methyl)carbamoyl)cyclohexyl methylcarbamate]",≤ 0.25
4,"CNC(=O)O[C@H]1CC[C@H](C(=O)N(C[C@H]2CC[C@H](c3ccc4c(c3)c(F)nn4C)CC2)c2cccc(-c3cnn(C4CC4)c3)c2)CC1 [Compound 1.09, trans-4-((3-(1-Cyclopropyl-1H-pyrazol-4-yl)phenyl)((trans-4-(3-fluoro-1-methyl-1H-indazol-5-yl)cyclohexyl)methyl)carbamoyl)cyclohexyl methylcarbamate]",≤ 0.25
5,"COc1ccc([C@H]2CC[C@H](CN(c3cccc(-c4cnn(C(C)C)c4)c3)C(=O)[C@H]3CC[C@H](OC(=O)N4CC(O)C4)CC3)CC2)nc1C [Compound 7.15, trans-4-((3-(1-Isopropyl-1H-pyrazol-4-yl)phenyl)((trans-4-(5-methoxy-6-methylpyridin-2-yl)cyclohexyl)methyl)carbamoyl)cyclohexyl 3-hydroxyazetidine-1-carboxylate]",≤ 0.25

# More lines, now with the values ahead:
row,EC50 [µM],Structure (SMILES)
1,≤ 0.25,"COc1ccc([C@H]2CC[C@H](CN(c3cccc(-c4cnn(C5CC5)c4)c3)C(=O)[C@H]3CC[C@H](OC(=O)N4CC(O)C4)CC3)CC2)nc1C#N [Compound 7.33, trans-4-(((trans-4-(6-Cyano-5-methoxypyridin-2-yl)cyclohexyl)methyl)(3-(1-cyclopropyl-1H-pyrazol-4-yl)phenyl)carbamoyl) cyclohexyl 3-hydroxyazetidine-1-carboxylate]"
2,≤ 0.25,"CN(C)c1ccc([C@H]2CC[C@H](CN(c3cccc(-c4cnn(C5CC5)c4)c3)C(=O)[C@H]3CC[C@H](OC(=O)N4CC(O)C4)CC3)CC2)cn1 [Compound 7.13, trans-4-((3-(1-Cyclopropyl-1H-pyrazol-4-yl)phenyl)((trans-4-(6-(dimethylamino)pyridin-3-yl)cyclohexyl)methyl)carbamoyl) cyclohexyl 3-hydroxyazetidine-1-carboxylate]"
3,≤ 0.25,"COc1ccc([C@H]2CC[C@H](CN(c3cc(-c4cnc(C5CC5)s4)ccn3)C(=O)[C@H]3CC[C@H](CC(=O)O)CC3)CC2)nc1C [Compound 20.04, 2-(trans-4-((4-(2-Cyclopropylthiazol-5-yl)pyridin-2-yl)((trans-4-(5-methoxy-6-methylpyridin-2-yl)cyclohexyl)methyl)carbamoyl)cyclohexyl)acetic acid]"
4,≤ 0.25,"COc1ccc([C@H]2CC[C@H](CN(c3cc(-c4coc(C5CC5)n4)ccn3)C(=O)[C@H]3CC[C@H](OC(=O)NCC(C)(O)C(C)C)CC3)CC2)nc1C (stereo partly drawn) [Compound 6.68, trans-4-((4-(2-Cyclopropyloxazol-4-yl)pyridin-2-yl)((trans-4-(5-methoxy-6-methylpyridin-2-yl)cyclohexyl)methyl)carbamoyl)cyclohexyl (2-hydroxy-2,3-dimethylbutyl)carbamate]"
5,≤ 0.25,COc1ncc(-c2cccc(N(C[C@H]3CC[C@H](c4ccc(OC)c(C)c4)CC3)C(=O)[C@H]3CC[C@H](C(=O)NCCO)CC3)c2)s1 [Compound 24.03]
